Patent US20080293749A1, “Pyrrolidine(thi)ones Substituted by Heterocyclic Substituents in The 3-Position” (Gruenenthal GmbH, priority 2005, published 2008)
Converted amounts (≈) assume the structure as drawn.

Tests used:
[1] = tested on: IL-12 production of LPS-activated monocytes; test: Inhibition of IL-12 production of LPS-activated human monocytes (sandwich ELISA of culture supernatants); format: cell-based; conditions: Monocyte; human CD14-positive monocytes, 1 h preincubation with test substance, 10 μg/ml LPS from E. coli, 24 hours
Experimental: (§1) Stimulation of human monocytes with lipopolysaccharide for secretion of IL-10 and IL-12:
(§2) Human monocytes were isolated from peripheral blood mononuclear cells (PBMC), which were obtained from heparinized whole blood by means of a Ficoll density gradient centrifugation. For this, the PBMC were incubated with a monoclonal antibody which is directed against the monocyte-specific surface molecule CD14 and to which superparamagnetic microbeads (Miltenyi Biotech, Bergisch Gladbach) are coupled. For positive selection of the labelled monocytes from the cell mixture of the PBMC, the entire cell suspension was applied to a column with a ferromagnetic carrier matrix and this was placed in a magnetic field. The cells loaded with microbeads were thereby bound to the carrier matrix, and non-labelled cells passed through the column and were discarded. After removing the matrix from the magnetic field, the antibody-laden cells were eluted by rinsing the now demagnetized column with buffer. The purity of this CD14-positive monocyte population obtained in this way is about 95-98%. These monocytes were incubated in a density of 10^6 cells/ml of culture medium (RPMI, supplemented with 10% foetal calf serum) with the test substances, dissolved in DMSO, at 37° C. and 5% CO2 for one hour. 10 μg/ml of LPS from E. coli were then added. After 24 hours, cell-free culture supernatants were taken and tested for the content of IL-10 and IL-12.
(§3) The concentration of IL-12 and IL-10 in the cell culture supernatants was determined by means of sandwich ELISAs using two anti-IL-12 and, respectively, IL-10 monoclonal antibodies (Biosource Europe, Fleurus, Belgium). A reference standard curve with human IL-10 and, respectively, IL-12 was included. The detection limit of the ELISAs was 15 pg/ml.

[2] = tested on: IL-10 production of LPS-activated monocytes; test: Increase in IL-10 production of LPS-activated human monocytes (sandwich ELISA of culture supernatants); format: cell-based; conditions: human CD14-positive monocytes, 1 h preincubation with test substance, 10 μg/ml LPS from E. coli, 24 hours; for EC200: Monocyte
Experimental: as §1, §2, §3

[3] = Pharmacokinetics after intravenous administration to rats (plasma concentration/time curves); format: in vivo; conditions: 10 mg/kg each, both compounds given together, estimated from the FIGURE
Experimental: Volumes of 2 ml/kg were administered intravenously to rats through the tail vein. After defined times, blood samples were taken from the retro-orbital plexus and plasma obtained. Plasma concentrations of both compounds were determined using valid bioanalytical methods.

SMILES	IC50 [1] [µg/mL]	distribution volume [3] [L/kg]	melting point [°C]	EC200 [2] [µg/mL]	Increase in IL-10 production EC200 [2]
O=C1CC(N2C=Nc3cc(F)ccc3C2)C(=O)N1 (stereo not shown) [Example 3, 3-(7-fluoro-4H-quinazolin-3-yl)-pyrrolidine-2,5-dione]	0.13 (≈ 0.526 µM)	0.26		0.4	
Cc1cccc2c1CN(C1CC(=O)NC1=O)C=N2 (stereo not shown) [Example 8b, 3-(5-methyl-4H-quinazolin-3-yl)-pyrrolidine-2,5-dione]	7.3 (≈ 30 µM)		221 to 224	> 50	
O=C1CC(N2C=Nc3ccccc3C2)C(=O)N1 (stereo not shown) [Example 11a, 3-(4H-quinazolin-3-yl)-pyrrolidine-2,5-dione]	0.6 (≈ 2.62 µM)		168 to 174	5	
O=C1CC(N2C=Nc3cccc(F)c3C2)C(=O)N1 (stereo not shown) [Example 11b, 3-(5-fluoro-4H-quinazolin-3-yl)-pyrrolidine-2,5-dione]	0.514 (≈ 2.08 µM)		184 to 191	5.6	
O=C1CC(N2C=Nc3cccc([N+](=O)[O-])c3C2)C(=O)N1 (stereo not shown) [Example 14, 3-(5-nitro-4H-quinazolin-3-yl)-pyrrolidine-2,5-dione]	5.71 (≈ 20.8 µM)			20	
CC1=Nc2cc(Cl)ccc2CN1C1CC(=O)NC1=O (stereo not shown) [Example 15bb, 3-(7-chloro-2-methyl-4H-quinazolin-3-yl)-pyrrolidine-2,5-dione]	0.419 (≈ 1.51 µM)		153 to 155	5.6	
CC1=Nc2cccc(Cl)c2CN1C1CC(=O)NC1=O (stereo not shown) [Example 15i, 3-(5-chloro-2-methyl-4H-quinazolin-3-yl)-pyrrolidine-2,5-dione]	0.884 (≈ 3.18 µM)		163 to 170	15	
CC1=Nc2cc(F)cc(Cl)c2CN1C1CC(=O)NC1=O (stereo not shown) [Example 15j, 3-(5-chloro-7-fluoro-2-methyl-4H-quinazolin-3-yl)-pyrrolidine-2,5-dione]	0.521 (≈ 1.76 µM)		179 to 181	5	
CC1=Nc2cccc(F)c2CN1C1CC(=O)NC1=O (stereo not shown) [Example 15l, 3-(5-fluoro-2-methyl-4H-quinazolin-3-yl)-pyrrolidine-2,5-dione]	2 (≈ 7.66 µM)		185	5.6	

Now from value to compound, other results behind:

IC50 [1] [µg/mL]	distribution volume [3] [L/kg]	melting point [°C]	SMILES	EC200 [2] [µg/mL]	Increase in IL-10 production EC200 [2]
0.62 (≈ 2.35 µM)		194	O=C1CC(N2C=Nc3cc(Cl)ccc3C2)C(=O)N1 (stereo not shown) [Example 8g, 3-(7-chloro-4H-quinazolin-3-yl)-pyrrolidine-2,5-dione]	1	
15 (≈ 57.9 µM)		174 to 184	COc1ccc2c(c1)N=CN(C1CC(=O)NC1=O)C2 (stereo not shown) [Example 9b, 3-(7-methoxy-4H-quinazolin-3-yl)-pyrrolidine-2,5-dione]	16	
0.303 (≈ 1.15 µM)		218	O=C1CC(N2C=Nc3cccc(Cl)c3C2)C(=O)N1 (stereo not shown) [Example 10a, 3-(5-chloro-4H-quinazolin-3-yl)-pyrrolidine-2,5-dione]	16	
1.17 (≈ 4.44 µM)		166	O=C1CC(N2C=Nc3ccc(Cl)cc3C2)C(=O)N1 (stereo not shown) [Example 10c, 3-(6-chloro-4H-quinazolin-3-yl)-pyrrolidine-2,5-dione]	> 50	
4 (≈ 16.5 µM)		72 to 75	CC1=Nc2ccccc2CN1C1CC(=O)NC1=O (stereo not shown) [Example 15b, 3-(2-methyl-4H-quinazolin-3-yl)-pyrrolidine-2,5-dione]	> 50	
6 (≈ 23 µM)			CC1=Nc2cc(F)ccc2CN1C1CC(=O)NC1=O (stereo not shown) [Example 15cc, 3-(7-fluoro-2-methyl-4H-quinazolin-3-yl)-pyrrolidine-2,5-dione]	20	
0.52 (≈ 1.86 µM)		176 to 178	CC1=Nc2cc(F)cc(F)c2CN1C1CC(=O)NC1=O (stereo not shown) [Example 15e, 3-(5,7-difluoro-2-methyl-4H-quinazolin-3-yl)-pyrrolidine-2,5-dione]	3	
4 (≈ 12.4 µM)			CC1=Nc2cccc(Br)c2CN1C1CC(=O)NC1=O (stereo not shown) [Example 15h, 3-(5-bromo-2-methyl-4H-quinazolin-3-yl)-pyrrolidine-2,5-dione]	> 50	
1.8 (≈ 6.45 µM)		183 to 185	CC1=Nc2cc(F)c(F)cc2CN1C1CC(=O)NC1=O (stereo not shown) [Example 15u, 3-(6,7-difluoro-2-methyl-4H-quinazolin-3-yl)-pyrrolidine-2,5-dione]	> 50	
0.07 (≈ 0.271 µM)			O=C1CCC(N2C(=O)c3ccccc3C2=O)C(=O)N1 (stereo not shown) [Thalidomide, thalidomide, reference compound]	20	
> 50			O=C1CC(N2C(=O)c3ccccc3C2=O)C(=O)N1 (stereo not shown) [XXVIII = C1, 2-(2,5-dioxo-pyrrolidin-3-yl)-isoindole-1,3-dione, reference compound]		no increase
